Laboratory results from ChEMBL document CHEMBL2016454, “Design and synthesis of dihydrobenzofuran amides as orally bioavailable, centrally active γ-secretase modulators” (Bioorg Med Chem Lett, 2012).
Active and inactive are the calls of the source. No cut-off for these calls is given here.

Columns and labels:
[1] = Intrinsic clearance in human liver microsomes; type: ADME, Microsome; conditions: read-out: CLH
[2] = Inhibition of gamma secretase expressed in CHO cells expressing APP assessed as amyloid beta42 production; type: cell-based
[3] = tested on: Cavia porcellus; experiment: Antialzheimer activity in Hartley guinea pig assessed as effect on total amyloid beta level in brain at 100 mg/kg, po after 4 hrs; type: functional, organism-based; parameters: dose 100 mg/kg
[4] = Drug uptake in Hartley guinea pig brain at 100 mg/kg, po after 4 hrs post dose; type: ADME, organism-based, Cavia porcellus; parameters: dose 100 mg/kg, route oral; conditions: read-out: Drug uptake
[5] = Fraction unbound in Hartley guinea pig plasma at 100 mg/kg, po after 4 hrs post dose; type: ADME, organism-based, Cavia porcellus; parameters: dose 100 mg/kg, route oral
[6] = tested on: Cavia porcellus; experiment: Antialzheimer activity in Hartley guinea pig assessed as reduction of amyloid beta40 level in brain at 100 mg/kg, po after 4 hrs; type: functional; parameters: scale not given: the % may be the effect or the level left
[7] = tested on: Cavia porcellus; experiment: Antialzheimer activity in Hartley guinea pig assessed as effect on total amyloid beta level in plasma at 100 mg/kg, po after 4 hrs; type: functional, organism-based; parameters: dose 100 mg/kg
[8] = Fraction unbound in Hartley guinea pig brain at 100 mg/kg, po after 4 hrs post dose […]; type: ADME, organism-based, Cavia porcellus; parameters: dose 100 mg/kg, route oral
[9] = tested on: Cavia porcellus; experiment: Antialzheimer activity in Hartley guinea pig assessed as increase of amyloid beta38 level in plasma at 100 mg/kg, po after 4 hrs; type: functional
[10] = Ratio of fraction unbound in Hartley guinea pig brain to IC50 of gamma secretase expressed in CHO cells expressing APP assessed as amyloid beta42 production; type: ADME, cell-based
[11] = tested on: Cavia porcellus; experiment: Antialzheimer activity in Hartley guinea pig assessed as reduction of amyloid beta42 level in brain at 100 mg/kg, po after 4 hrs; type: functional; parameters: scale not given: the % may be the effect or the level left
[12] = Clearance in rat; type: ADME, organism-based; conditions: in vivo
[13] = target: Gamma-secretase; experiment: Inhibition of gamma-secretase expressed in human HEK293 NdeltaE cells assessed as cleavage of Notch; type: cell-based
[14] = Total plasma concentration in Hartley guinea pig at 100 mg/kg, po after 4 hrs post dose; type: ADME, organism-based, Cavia porcellus; parameters: dose 100 mg/kg, route oral
[15] = tested on: MDR1 (P-gp), human; experiment: Efflux ratio of permeability in MDCK cells over expressing human MDR1; type: ADME, cell-based, Canis lupus familiaris; conditions: dog
[16] = Half life in rat; type: ADME, organism-based; conditions: in vivo
[17] = Volume of distribution at steady state in rat; type: ADME, organism-based; conditions: in vivo, read-out: Vdss
[18] = Oral bioavailability in rat; type: ADME, organism-based; conditions: in vivo
[19] = tested on: Brain; experiment: Ratio of drug level in p-gp knock-out mouse brain to wild type mouse brain; type: ADME, tissue-based; conditions: in vivo
[20] = target: Cytochrome P450 3A4 (Homo sapiens, UniProt P08684); experiment: Inhibition of CYP3A4; type: ADME
Chain of Cytochrome P450 3A4 (P08684 whole entry): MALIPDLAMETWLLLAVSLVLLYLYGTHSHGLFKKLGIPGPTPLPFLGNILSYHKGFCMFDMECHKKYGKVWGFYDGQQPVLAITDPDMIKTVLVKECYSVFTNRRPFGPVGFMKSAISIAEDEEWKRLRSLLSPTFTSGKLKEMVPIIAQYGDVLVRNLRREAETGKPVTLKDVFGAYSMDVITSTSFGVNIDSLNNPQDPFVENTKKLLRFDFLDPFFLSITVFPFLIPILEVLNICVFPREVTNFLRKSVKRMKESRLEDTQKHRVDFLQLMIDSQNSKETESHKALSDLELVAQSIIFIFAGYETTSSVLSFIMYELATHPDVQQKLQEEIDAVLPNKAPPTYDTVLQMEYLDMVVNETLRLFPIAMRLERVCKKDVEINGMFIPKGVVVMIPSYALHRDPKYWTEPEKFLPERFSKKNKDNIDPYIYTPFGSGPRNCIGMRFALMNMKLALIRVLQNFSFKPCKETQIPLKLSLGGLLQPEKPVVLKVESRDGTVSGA

[21] = target: Cytochrome P450 2D6 (Homo sapiens, UniProt P10635); experiment: Inhibition of CYP2D6; type: ADME
Chain of Cytochrome P450 2D6 (P10635 whole entry): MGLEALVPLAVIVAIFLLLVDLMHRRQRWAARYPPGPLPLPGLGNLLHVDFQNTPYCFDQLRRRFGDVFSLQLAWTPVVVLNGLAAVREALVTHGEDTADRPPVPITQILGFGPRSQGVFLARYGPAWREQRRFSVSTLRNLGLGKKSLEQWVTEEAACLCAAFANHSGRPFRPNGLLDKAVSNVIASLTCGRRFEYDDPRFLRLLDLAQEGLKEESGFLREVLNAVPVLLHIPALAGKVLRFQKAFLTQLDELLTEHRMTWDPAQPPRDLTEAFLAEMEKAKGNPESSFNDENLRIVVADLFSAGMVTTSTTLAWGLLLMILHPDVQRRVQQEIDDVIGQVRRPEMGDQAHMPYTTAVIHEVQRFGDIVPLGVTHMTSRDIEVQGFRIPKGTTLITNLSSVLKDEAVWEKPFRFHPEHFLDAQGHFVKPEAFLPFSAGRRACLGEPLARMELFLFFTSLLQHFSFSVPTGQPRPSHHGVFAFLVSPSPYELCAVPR

microsomal CLint [1]	IC50 [2]	efflux ratio [15]	SMILES	also measured
19.4 µL/min/mg	1690 nM	–	COc1cc(C(=O)N[C@H]2COc3c(Cl)cccc32)ccc1-n1cnc(C)c1	–
22.3 µL/min/mg	521 nM	1.6	COc1cc(C(=O)N[C@H]2COc3ccc(Cl)cc32)ccc1-n1cnc(C)c1	Activity [3]: inactive; concentration at 4 h [4]: 22100 ng/g; fraction unbound at 4 h [5]: 0.088; Activity [6]: 32%; Activity [7]: inactive; fraction unbound at 4 h [8]: 0.018; Activity [9]: 72%; Ratio [10]: 2.1; Activity [11]: 57%; clearance [12]: 9.63 mL/min/kg; IC50 [13]: > 50000 nM; concentration at 4 h [14]: 5120 ng/mL; half-life [16]: 2.43 h; Vd [17]: 1.87 L; bioavailability [18]: 100%
12.6 µL/min/mg	4400 nM	1.1	COc1cc(C(=O)N[C@@H](C)c2ccc(F)cc2)ccc1-n1cnc(C)c1	–
50.8 µL/min/mg	320 nM	2.5	COc1cc(C(=O)N2CC[C@H](Oc3ccccc3C(F)(F)F)C2)ccc1-n1cnc(C)c1	–
97.3 µL/min/mg	1660 nM	1.7	COc1cc(C(=O)NC2COc3cccc(Cl)c32)ccc1-n1cnc(C)c1 (racemic)	–
32.7 µL/min/mg	605 nM	0.5	COc1cc(C(=O)N[C@H]2CCc3ccc(Cl)cc32)ccc1-n1cnc(C)c1	–
21.8 µL/min/mg	1560 nM	–	COc1cc(C(=O)NC2COc3ccc(F)cc32)ccc1-n1cnc(C)c1 (racemic)	–
37.1 µL/min/mg	143 nM	2.2	COc1cc(/C=C2\CCCN([C@@H](C)c3ccc(F)cc3)C2=O)ccc1-n1cnc(C)c1	–
29.3 µL/min/mg	332 nM	3.2	COc1cc(C(=O)NCc2cnc(-c3ccccc3)s2)ccc1-n1cnc(C)c1	Ratio [19]: 5
29.2 µL/min/mg	659 nM	1.8	COc1cc(C(=O)NCc2cccc(C(F)(F)F)c2)ccc1-n1cnc(C)c1	–
–	5330 nM	–	COc1cc(C(=O)N2CC[C@H](Oc3ccccc3C(F)(F)F)C2)ncc1-n1cnc(C)c1	–
112 µL/min/mg	309 nM	1.6	COc1cc(C(=O)NCC2(c3ccc(F)cc3)CCC2)ccc1-n1cnc(C)c1	–
49.3 µL/min/mg	234 nM	1.8	COc1nc(C(=O)NC2COc3ccc(Cl)c(C)c32)ccc1-n1cnc(C)c1 (racemic)	–
35.6 µL/min/mg	1960 nM	–	COc1cc(C(=O)NC2COc3cc(Cl)ccc32)ccc1-n1cnc(C)c1 (racemic)	–
–	1460 nM	8.7	COc1cc(C(=O)NCc2nnc(-c3cccc(Cl)c3)o2)ccc1-n1cnc(C)c1	–
48.7 µL/min/mg	208 nM	1.1	COc1nc(C(=O)N2CC[C@H](Oc3ccccc3C(F)(F)F)C2)ccc1-n1cnc(C)c1	–
122 µL/min/mg	114 nM	–	CCOc1cc(C)c(CN(C(=O)c2ccc(-n3cnc(C)c3)c(OC)c2)C2CC2)cc1C(C)C	–
16.9 µL/min/mg	2990 nM	–	COc1ccc2c(c1)[C@@H](NC(=O)c1ccc(-n3cnc(C)c3)c(OC)c1)CO2	–
30 µL/min/mg	188 nM	1.4	COc1nc(C(=O)N[C@H]2COc3ccc(Cl)c(F)c32)ccc1-n1cnc(C)c1	concentration at 4 h [4]: 3710 ng/g; fraction unbound at 4 h [5]: 0.078; Activity [6]: 16%; IC50 [20]: > 30000 nM; fraction unbound at 4 h [8]: 0.0097; Ratio [10]: 0.31; Activity [11]: 36%; clearance [12]: 31.4 mL/min/kg; IC50 [13]: > 50000 nM; concentration at 4 h [14]: 1290 ng/mL; half-life [16]: 0.64 h; IC50 [21]: > 30000 nM; Vd [17]: 1.78 L; bioavailability [18]: 51%
–	535 nM	–	COc1nc(C(=O)N2CC[C@H](Oc3ccccc3C(F)(F)F)C2)cnc1-n1cnc(C)c1	–
–	3440 nM	1.6	COc1cc(C(=O)N2CC[C@H](Oc3ccccc3C(F)(F)F)C2)cnc1-n1cnc(C)c1	–
28 µL/min/mg	343 nM	1.3	COc1nc(C(=O)N[C@H]2COc3ccc(Cl)cc32)ccc1-n1cnc(C)c1	–
124 µL/min/mg	256 nM	24	COc1cc(C(=O)N2CC[C@](O)(COc3ccccc3C(F)(F)F)C2)ccc1-n1cnc(C)c1	–
30 µL/min/mg	330 nM	3.8	COc1cc(C(=O)NCc2cc(-c3cccc(Cl)c3)no2)ccc1-n1cnc(C)c1	–
